Experiments:
Assay in all cases: Test B pre-/postemergence
Assay type in all cases: in vivo
Design in all cases: key: 0 is no effect; 10 is complete control
corn (Zea mays) = test system: corn (Zea mays)
In short: (§1)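 Seeds were planted and sprayed preemergence, while plants at 2 to 18 cm (1- to 4-leaf stage) were sprayed postemergence at the same time, with test chemical in a non-phytotoxic solvent mixture containing surfactant. After twelve to sixteen days in a greenhouse, injury was rated visually against untreated controls on a 0–10 scale.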

[1] = test system: cocklebur (Xanthium strumarium)
In short: as §1

soybean (Glycine max) = test system: soybean (Glycine max)
In short: as §1

[2] = test system: bedstraw (Galium aparine)
In short: as §1

[3] = test system: velvetleaf (Abutilon theophrasti)
In short: as §1

rape (Brassica napus) = test system: rape (Brassica napus)
In short: as §1

[4] = test system: momingglory (Ipomoea hederacea)
In short: as §1

[5] = test system: sugar beet (Beta vulgaris)
In short: as §1

[6] = test system: wheat (Triticum aestivum)
In short: as §1

[7] = test system: broadleaf signalgrass (Brachiaria decumbens)
In short: as §1

[8] = test system: pigweed (Amaranthus retroflexus)
In short: as §1

[9] = test system: crabgrass (Digitaria sanguinalis)
In short: as §1

wild oat (Avena fatua) = test system: wild oat (Avena fatua)
In short: as §1

[10] = test system: blackgrass (Alopecurus myosuroides)
In short: as §1

[11] = Preemergence, Rate 62 g/ha, scale of 0 to 10

Compound: Cc1cnc(-n2ccc(C(F)(F)F)n2)nc1C(=O)c1cccc(OC(F)(F)F)c1 [Compound 66]
- Plant response rating, Corn (corn (Zea mays); [11]): 0
- Corn plant response rating (corn (Zea mays); Rate 62 g/ha, Postemergence): 1
- Corn plant response rating (corn (Zea mays); Rate 125 g/ha, Postemergence): 2
- Plant response rating, Corn (corn (Zea mays); Rate 125 g/ha, Preemergence): 1
- Plant response rating, Corn (corn (Zea mays); Rate 250 g/ha, Postemergence): 2
- Plant response rating, Corn (corn (Zea mays); Rate 250 g/ha, Preemergence): 1
- Plant response rating, Corn (corn (Zea mays); Rate 500 g/ha, Postemergence): 3
- Plant response rating, Corn (corn (Zea mays); Rate 500 g/ha, Preemergence): 3
- Plant response rating, Cocklebur [1, 11]: 0
- Cocklebur plant response rating ([1]; Rate 62 g/ha, Postemergence): 3
- Cocklebur plant response rating ([1]; Rate 125 g/ha, Postemergence): 4
- Plant response rating, Cocklebur ([1]; Rate 125 g/ha, Preemergence): 0
- Plant response rating, Cocklebur ([1]; Rate 250 g/ha, Postemergence): 4
- Plant response rating, Cocklebur ([1]; Rate 250 g/ha, Preemergence): 0
- Plant response rating, Cocklebur ([1]; Rate 500 g/ha, Postemergence): 5
- Plant response rating, Cocklebur ([1]; Rate 500 g/ha, Preemergence): 3
- Plant response rating, Soybean (soybean (Glycine max); [11]): 0
- Soybean plant response rating (soybean (Glycine max); Rate 62 g/ha, Postemergence): 5
- Soybean plant response rating (soybean (Glycine max); Rate 125 g/ha, Postemergence): 5
- Plant response rating, Soybean (soybean (Glycine max); Rate 125 g/ha, Preemergence): 0
- Plant response rating, Soybean (soybean (Glycine max); Rate 250 g/ha, Postemergence): 6
- Plant response rating, Soybean (soybean (Glycine max); Rate 250 g/ha, Preemergence): 0
- Plant response rating, Soybean (soybean (Glycine max); Rate 500 g/ha, Postemergence): 7
- Plant response rating, Soybean (soybean (Glycine max); Rate 500 g/ha, Preemergence): 1
- Plant response rating, Bedstraw [2, 11]: 1
- Bedstraw plant response rating ([2]; Rate 62 g/ha, Postemergence): 2
- Bedstraw plant response rating ([2]; Rate 125 g/ha, Postemergence): 3
- Plant response rating, Bedstraw ([2]; Rate 125 g/ha, Preemergence): 2
- Plant response rating, Bedstraw ([2]; Rate 250 g/ha, Postemergence): 6
- Plant response rating, Bedstraw ([2]; Rate 250 g/ha, Preemergence): 3
- Plant response rating, Bedstraw ([2]; Rate 500 g/ha, Postemergence): 8
- Plant response rating, Bedstraw ([2]; Rate 500 g/ha, Preemergence): 8
- Plant response rating, Velvetleaf [3, 11]: 1
- Velvetleaf plant response rating ([3]; Rate 62 g/ha, Postemergence): 4
- Velvetleaf plant response rating ([3]; Rate 125 g/ha, Postemergence): 5
- Plant response rating, Velvetleaf ([3]; Rate 125 g/ha, Preemergence): 4
- Plant response rating, Velvetleaf ([3]; Rate 250 g/ha, Postemergence): 6
- Plant response rating, Velvetleaf ([3]; Rate 250 g/ha, Preemergence): 8
- Plant response rating, Velvetleaf ([3]; Rate 500 g/ha, Postemergence): 8
- Plant response rating, Velvetleaf ([3]; Rate 500 g/ha, Preemergence): 8
- Plant response rating, Rape (rape (Brassica napus); [11]): 0
- Rape plant response rating (rape (Brassica napus); Rate 62 g/ha, Postemergence): 3
- Rape plant response rating (rape (Brassica napus); Rate 125 g/ha, Postemergence): 3
- Plant response rating, Rape (rape (Brassica napus); Rate 125 g/ha, Preemergence): 0
- Plant response rating, Rape (rape (Brassica napus); Rate 250 g/ha, Postemergence): 7
- Plant response rating, Rape (rape (Brassica napus); Rate 250 g/ha, Preemergence): 4
- Plant response rating, Rape (rape (Brassica napus); Rate 500 g/ha, Postemergence): 7
- Plant response rating, Rape (rape (Brassica napus); Rate 500 g/ha, Preemergence): 8
- Plant response rating, Morningglory [4, 11]: 2
- Morningglory plant response rating ([4]; Rate 62 g/ha, Postemergence): 2
- Morningglory plant response rating ([4]; Rate 125 g/ha, Postemergence): 4
- Plant response rating, Morningglory ([4]; Rate 125 g/ha, Preemergence): 3
- Plant response rating, Morningglory ([4]; Rate 250 g/ha, Postemergence): 9
- Plant response rating, Morningglory ([4]; Rate 250 g/ha, Preemergence): 3
- Plant response rating, Morningglory ([4]; Rate 500 g/ha, Postemergence): 10
- Plant response rating, Morningglory ([4]; Rate 500 g/ha, Preemergence): 9
- Plant response rating, Sugarbeets [5, 11]: 9
- Sugarbeets plant response rating ([5]; Rate 62 g/ha, Postemergence): 10
- Sugarbeets plant response rating ([5]; Rate 125 g/ha, Postemergence): 10
- Plant response rating, Sugarbeets ([5]; Rate 125 g/ha, Preemergence): 10
- Plant response rating, Sugarbeets ([5]; Rate 250 g/ha, Postemergence): 10
- Plant response rating, Sugarbeets ([5]; Rate 250 g/ha, Preemergence): 10
- Plant response rating, Sugarbeets ([5]; Rate 500 g/ha, Postemergence): 10
- Plant response rating, Sugarbeets ([5]; Rate 500 g/ha, Preemergence): 10
- Plant response rating, Wheat [6, 11]: 0
- Wheat plant response rating ([6]; Rate 62 g/ha, Postemergence): 2
- Wheat plant response rating ([6]; Rate 125 g/ha, Postemergence): 2
- Plant response rating, Wheat ([6]; Rate 125 g/ha, Preemergence): 1
- Plant response rating, Wheat ([6]; Rate 250 g/ha, Postemergence): 2
- Plant response rating, Wheat ([6]; Rate 250 g/ha, Preemergence): 2
- Plant response rating, Wheat ([6]; Rate 500 g/ha, Postemergence): 3
- Plant response rating, Wheat ([6]; Rate 500 g/ha, Preemergence): 3
- B. signalgrass plant response rating ([7]; Rate 62 g/ha, Postemergence): 2
- B. signalgrass plant response rating ([7]; Rate 62 g/ha, Preemergence): 9
- B. signalgrass plant response rating ([7]; Rate 125 g/ha, Postemergence): 3
- Plant response rating, B. signalgrass ([7]; Rate 125 g/ha, Preemergence): 9
- Plant response rating, B. signalgrass ([7]; Rate 250 g/ha, Postemergence): 4
- Plant response rating, B. signalgrass ([7]; Rate 250 g/ha, Preemergence): 9
- Plant response rating, B. signalgrass ([7]; Rate 500 g/ha, Postemergence): 5
- Plant response rating, B. signalgrass ([7]; Rate 500 g/ha, Preemergence): 10
- Plant response rating, Redroot pigweed [8, 11]: 7
- Redroot pigweed plant response rating ([8]; Rate 62 g/ha, Postemergence): 8
- Redroot pigweed plant response rating ([8]; Rate 125 g/ha, Postemergence): 9
- Plant response rating, Redroot pigweed ([8]; Rate 125 g/ha, Preemergence): 9
- Plant response rating, Redroot pigweed ([8]; Rate 250 g/ha, Postemergence): 10
- Plant response rating, Redroot pigweed ([8]; Rate 250 g/ha, Preemergence): 9
- Plant response rating, Redroot pigweed ([8]; Rate 500 g/ha, Postemergence): 10
- Plant response rating, Redroot pigweed ([8]; Rate 500 g/ha, Preemergence): 10
- Plant response rating, Crabgrass [9, 11]: 6
- Crabgrass plant response rating ([9]; Rate 62 g/ha, Postemergence): 2
- Crabgrass plant response rating ([9]; Rate 125 g/ha, Postemergence): 7
- Plant response rating, Crabgrass ([9]; Rate 125 g/ha, Preemergence): 9
- Plant response rating, Crabgrass ([9]; Rate 250 g/ha, Postemergence): 8
- Plant response rating, Crabgrass ([9]; Rate 250 g/ha, Preemergence): 9
- Plant response rating, Crabgrass ([9]; Rate 500 g/ha, Postemergence): 10
- Plant response rating, Crabgrass ([9]; Rate 500 g/ha, Preemergence): 9
- Plant response rating, Wild oats (wild oat (Avena fatua); [11]): 2
- Wild oats plant response rating (wild oat (Avena fatua); Rate 62 g/ha, Postemergence): 2
- Wild oats plant response rating (wild oat (Avena fatua); Rate 125 g/ha, Postemergence): 2
- Plant response rating, Wild oats (wild oat (Avena fatua); Rate 125 g/ha, Preemergence): 4
- Plant response rating, Wild oats (wild oat (Avena fatua); Rate 250 g/ha, Postemergence): 2
- Plant response rating, Wild oats (wild oat (Avena fatua); Rate 250 g/ha, Preemergence): 5
- Plant response rating, Wild oats (wild oat (Avena fatua); Rate 500 g/ha, Postemergence): 3
- Plant response rating, Wild oats (wild oat (Avena fatua); Rate 500 g/ha, Preemergence): 5
- Plant response rating, Blackgrass [10, 11]: 3
- Blackgrass plant response rating ([10]; Rate 62 g/ha, Postemergence): 2
- Blackgrass plant response rating ([10]; Rate 125 g/ha, Postemergence): 3
- Plant response rating, Blackgrass ([10]; Rate 125 g/ha, Preemergence): 3
- Plant response rating, Blackgrass ([10]; Rate 250 g/ha, Postemergence): 5
- Plant response rating, Blackgrass ([10]; Rate 250 g/ha, Preemergence): 8
- Plant response rating, Blackgrass ([10]; Rate 500 g/ha, Postemergence): 6
- Plant response rating, Blackgrass ([10]; Rate 500 g/ha, Preemergence): 10

— patent US6525001B1, “Substituted pyrimidine and pyridine herbicides” (Mid-American Commercialization Corporation, priority 1997, dated 2003)
